The source of these data is US9040695B2, “Acid addition salts of risperidone and pharmaceutical compositions thereof” (TORRENT PHARMACEUTICALS LIMITED, priority 2011, dated 2015).

Data set [1] in a line: Intrinsic dissolution rate (disc method, HPLC analysis). The class given is physicochemical. To be noted: phosphate buffer saline, 37° C., 200 rpm; for Intrinsic dissolution rate: 50 mg disc, drug equivalent to risperidone dissolved per unit area per unit time. How it is done:
The risperidone hemipamoate of example-1 has intrinsic dissolution rates much less than that compared to risperidone alone as disclosed herein below. The intrinsic dissolution rates were determined by preparing discs of sample (50 mg) and performing dissolution by mounting the sample on shaft of dissolution apparatus with help of disc adaptor. The dissolution was performed in phosphate buffer saline, at 37° C. and rotation of 200 rpm. Samples were withdrawn at regular interval and analyzed by high performance liquid chromatography. The intrinsic dissolution rate was calculated as amount of drug (equivalent to risperidone) dissolved per unit area per unit time.

Data set [2] can be described thus: pK study in Wistar rats, aqueous suspensions by intramuscular route. It counts as in vivo, male wistar rats. To be noted: single IM dose, 3.6 mg equivalent risperidone base, aqueous suspension, figure-3. The method, then: A comparative evaluation of pharmacokinetic profile of Risperidone, Rispridone pamoate and Risperidone hemipamoate was carried out in male wistar rats. Aqueous suspension formulations of Risperidone base, Pamoate and hemipamoate salt containing 3.6 mg equivalent risperidone base were administered through intramuscular route. Each group (N=5) was administered a single dose. Blood samples were withdrawn at predefined time interval for measurement of Risperidone and 9-hydroxyrisperidone.

For data set [3] the following is noted: poorly soluble salt suspended in aqueous vehicle, dogs; cited from earlier work.

`Cc1nc2n(c(=O)c1CCN1CCC(c3noc4cc(F)ccc34)CC1)CCCC2` [Risperidone, 3-[2-[4-(6-fluoro-1,2-benzisoxazol-3-yl)-1-piperidinyl]ethyl]-6,7,8,9-tetrahydro-2-methyl-4H-pyrido[1,2-a]pyrimidin-4-one]: the Intrinsic dissolution rate in data set [1] is listed as 1.89 mg/cm^2/h.
As for `Cc1nc2n(c(=O)c1CCN1CCC(c3noc4cc(F)ccc34)CC1)CCCC2.Cc1nc2n(c(=O)c1CCN1CCC(c3noc4cc(F)ccc34)CC1)CCCC2.O=C(O)c1cc2ccccc2c(Cc2c(O)c(C(=O)O)cc3ccccc23)c1O` [Risperidone hemipamoate], in data set [1], the “Intrinsic dissolution rate compared to risperidone alone” value is “much less” and the Intrinsic dissolution rate was 0.49 mg/cm^2/h. In addition, in data set [2], the “Absorption after IM administration” value was “absorbed rapidly”, the “Exposure duration compared to risperidone pamoate” value is recorded as “remains sustained for longer duration” and the Plasma level course result is reported as “sustains for long duration comparatively”.
With `Cc1nc2n(c(=O)c1CCN1CCC(c3noc4cc(F)ccc34)CC1)CCCC2` [Risperidone pamoate, reference compound], in data set [2], the “Absorption after IM administration” value is recorded as “absorbed rapidly” and the Plasma level course entry is “falls quickly”. Further, the Period of effectiveness result in data set [3] is on record as “over 2 week”.
